Assay results from PMC12481576, “Barbituric Acid Derivatives as Covalent Inhibitors of Leishmania braziliensis Dihydroorotate Dehydrogenase” (Journal of Medicinal Chemistry, 2025).
“And” between values parts separate entries of the source, which are not always exact repeats. Identical values can stand only once. Like-named read-outs stand apart in the source and are kept apart here.

Columns and labels:
LbDHODH = LbDHODH (Leishmania braziliensis, UniProt E9AI53); test: biochemical
In short: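 Screened at 100 μM with and without 4-h enzyme preincubation; DCIP reduction during DHO oxidation read at 610 nm every 3 s for 60 s in 50 mM Tris pH 8.15, 150 mM KCl, 0.1% Triton X-100, triplicate, 5% DMSO control. kinact/KI taken as slope of kobs versus inhibitor concentration (initial linear region).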

[1] = for Calculated T-half (min), Average / Calculated T-half (min), n=1 / Calculated T-half (min), n=2: mouse liver microsomes (CD1 male), 0.4 mg/ml protein, test conc 1 µM; for Calculated T-half (min), Average: average of n=1 and n=2; for Calculated T-half (min), n=1: replicate n=1; for Calculated T-half (min), n=2: replicate n=2; for Raw data: analyte peak area, T=0: 0 min; for Raw data: analyte peak area, T=0 / Raw data: analyte peak area, T=5 / Raw data: analyte peak area, T=10 / Raw data: analyte peak area, T=20: raw LC-MS area; for Modified T-half (min), Average: limited to T Half range 3.00 - […]; for Raw data: analyte peak area, T=5: 5 min; for Raw data: analyte peak area, T=10: 10 min; for Raw data: analyte peak area, T=20: 20 min; for mouse liver microsomes T-half: NADPH, 1 μM
in vitro = conditions: microsomes; for microsomal CLint at 1 μM / remaining at 5 min, 1 μM: male, CD1, mouse; for remaining at 5 min, 1 μM / remaining at 10 min, 1 µM / remaining at 20 min, 1 µM / remaining at 0.5 h, 1 µM / remaining at 1 h, 1 µM: pH 7.4, % Remaining; for remaining at 5 min, 1 μM: T=5 min; for remaining at 10 min, 1 µM / remaining at 20 min, 1 µM / remaining at 0.5 h, 1 µM / remaining at 1 h, 1 µM: mouse; for remaining at 10 min, 1 µM: T=10 min; for remaining at 20 min, 1 µM: T=20 min; for remaining at 0.5 h, 1 µM: T=30 min, 30 min; for remaining at 1 h, 1 µM: T=60 min, 60 min
[2] = 0 h, pH 8.15, read-out: LbDHODH Activity±SD (%)
[3] = 4 h, pH 8.15, read-out: LbDHODH Activity±SD (%)
[4] = IC50 0 h, LbDHODH, without preincubation
[5] = IC50 4 h, LbDHODH, 4-h preincubation
[6] = read-out: Single dose (0h) % activity
[7] = read-out: Single dose (4h) % activity
[8] = mouse liver microsomes, replicate 1 (left block)
[9] = mouse liver microsomes, replicate 2 (right block)
[10] = mouse liver microsomes, 0.4 mg/ml, 1 µM
[11] = n=1, mouse liver microsomes, n=1
[12] = n=2, mouse liver microsomes, n=2
[13] = pH 7.4, mouse liver microsomes CLint, app, mouse liver microsomes, NADPH, 1 μM

Chain of LbDHODH (E9AI53 entry or part of it): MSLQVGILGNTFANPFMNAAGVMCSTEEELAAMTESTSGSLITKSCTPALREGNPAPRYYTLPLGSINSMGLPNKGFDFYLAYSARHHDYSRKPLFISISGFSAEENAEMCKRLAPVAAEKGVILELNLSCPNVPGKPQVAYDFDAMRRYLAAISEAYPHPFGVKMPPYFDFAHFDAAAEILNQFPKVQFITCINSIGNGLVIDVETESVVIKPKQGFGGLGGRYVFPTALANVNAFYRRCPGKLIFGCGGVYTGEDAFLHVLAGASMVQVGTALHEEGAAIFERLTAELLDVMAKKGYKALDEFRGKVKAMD

Which results are given for `O=C1NC(=O)C(=Cc2ccc(N3CCOCC3)cc2[N+](=O)[O-])C(=O)N1` [2e, 5-(4-Morpholino-2-nitrobenzylidene)pyrimidine-2,4,6(1H,3H,5H)-trione]?
activity at 0.048828 µM (LbDHODH; [2]): 87 ± 1%; activity at 0.0976562 µM (LbDHODH; [2]): 92 ± 1%; activity at 0.195312 µM (LbDHODH; [2]): 94 ± 1%; activity at 0.390625 µM (LbDHODH; [2]): 79 ± 3%; activity at 0.78125 µM (LbDHODH; [2]): 83 ± 4%; activity at 1.5625 µM (LbDHODH; [2]): 71 ± 2%; activity at 3.125 µM (LbDHODH; [2]): 67 ± 4%; activity at 6.25 µM (LbDHODH; [2]): 45 ± 3%; activity at 12.5 µM (LbDHODH; [2]): 31 ± 4%; activity at 25 µM (LbDHODH; [2]): 22 ± 1%; activity at 50 µM (LbDHODH; [2]): 7 ± 5%; activity at 100 µM (LbDHODH; [2]): 10 ± 1%; activity at 0.048828 µM (LbDHODH; [3]): 104 ± 4%; activity at 0.0976562 µM (LbDHODH; [3]): 107 ± 3%; activity at 0.195312 µM (LbDHODH; [3]): 104 ± 3%; activity at 0.390625 µM (LbDHODH; [3]): 106 ± 7%; activity at 0.78125 µM (LbDHODH; [3]): 103 ± 1%; activity at 1.5625 µM (LbDHODH; [3]): 85 ± 2%; activity at 3.125 µM (LbDHODH; [3]): 87 ± 2%; activity at 6.25 µM (LbDHODH; [3]): 87 ± 2%; activity at 12.5 µM (LbDHODH; [3]): 60 ± 8%; activity at 25 µM (LbDHODH; [3]): 67 ± 6%; activity at 50 µM (LbDHODH; [3]): 35 ± 4%; activity at 100 µM (LbDHODH; [3]): 13 ± 1%; IC50 (LbDHODH; [4]): 5 ± 1 µM; IC50 (LbDHODH; [5]): 28 ± 3 µM; activity at 100 µM (LbDHODH; [6]): 10 ± 1%; activity at 100 µM (LbDHODH; [7]): 7 ± 2%; inhibition at 100 µM (LbDHODH; read-out: enzyme inhibition): 90 to 93%; Calculated T-half (min), Average [1]: 298.4 min; Calculated T-half (min), n=1 [1]: 354.59 min and 354.6 min; Calculated T-half (min), n=2 [1]: 242.28 min and 242.3 min; Raw data: analyte peak area, T=0 [1, 8]: 18699; Raw data: analyte peak area, T=0 [1, 9]: 19500; Modified T-half (min), Average [1, 10]: >120.0 min; Raw data: analyte peak area, T=5 [1, 8]: 18869; Raw data: analyte peak area, T=5 [1, 9]: 20171; Raw data: analyte peak area, T=10 [1, 8]: 18566; Raw data: analyte peak area, T=10 [1, 9]: 21617; Raw data: analyte peak area, T=20 [1, 8]: 17411; Raw data: analyte peak area, T=20 [1, 9]: 21071; mouse liver microsomes T-half ([1]; mouse liver microsomes): >120.0 min; microsomal CLint at 1 μM (in vitro; pH 7.4): < 14.4 µL/min/mg; remaining at 5 min, 1 μM (in vitro; [11]): 91.8%; remaining at 5 min, 1 μM (in vitro; [12]): 103%; microsomal CLint at 1 μM (in vitro; [13]): < 14.4 µL/min/mg; remaining at 10 min, 1 µM (in vitro; [11]): 96%; remaining at 10 min, 1 µM (in vitro; [12]): 109%; remaining at 20 min, 1 µM (in vitro; [11]): 83.8%; remaining at 20 min, 1 µM (in vitro; [12]): 99.7%; remaining at 0.5 h, 1 µM (in vitro; [11]): 85%; remaining at 0.5 h, 1 µM (in vitro; [12]): 91.7%; remaining at 1 h, 1 µM (in vitro; [11]): 87.6%; remaining at 1 h, 1 µM (in vitro; [12]): 88.8%

Which IC50 (LbDHODH; [4]) does the source give for `O=C1NC(=O)C(=Cc2ccc(-c3ccccc3F)[nH]2)C(=O)N1` [2h, 5-((5-(2-Fluorophenyl)-1H-pyrrol-2-yl)methylene)pyrimidine-2,4,6(1H,3H,5H)-trione] here?
The IC50 was greater than 100 µM.

And the IC50 (LbDHODH; [5])?
The IC50 was greater than 100 µM.

What about the “IC50 4 h” value (LbDHODH; LbDHODH, 4-h preincubation) of the same molecule?
The value was “inactive”.

What about the activity at 100 µM (LbDHODH; [6]) of the same molecule?
Its activity at 100 µM is 90 ± 10%.

And the activity at 100 µM (LbDHODH; [7])?
The activity at 100 µM was 60 ± 10%.

And the “Calculated T-half (min), Average” value [1]?
The value was 1.7 min.

What about the “Calculated T-half (min), n=1” value [1] of the same molecule?
The value was 1.70 min and 1.7 min.

What about the “Calculated T-half (min), n=2” value [1] of the same molecule?
Its value is 1.71 min and 1.7 min.

And the “Modified T-half (min), Average” value [1, 10]?
Its value is less than 3.0 min.

What about the “Remarks (mouse microsomal stability study)” value ([1]; mouse liver microsomes, 0.4 mg/ml, 1 µM, NCF = no cofactor control) of the same molecule?
The value was “Very fast metabolism; Low NCF”.

And the “mouse liver microsomes T-half” value ([1]; mouse liver microsomes)?
Its value is less than 3.0 min.

And the microsomal CLint at 1 μM (in vitro; pH 7.4)?
Its microsomal CLint at 1 μM is greater than 578 µL/min/mg.

What about the remaining at 5 min, 1 μM (in vitro; [11]) of the same molecule?
The remaining at 5 min, 1 μM was 5.9%.

What about the remaining at 5 min, 1 μM (in vitro; [12]) of the same molecule?
The remaining at 5 min, 1 μM was 5.1%.

What about the microsomal CLint at 1 μM (in vitro; [13]) of the same molecule?
The microsomal CLint at 1 μM was greater than 578 µL/min/mg.

What about the remaining at 10 min, 1 µM (in vitro; [11]) of the same molecule?
Its remaining at 10 min, 1 µM is 1.7%.

And the remaining at 10 min, 1 µM (in vitro; [12])?
The remaining at 10 min, 1 µM was 1.7%.

What about the remaining at 20 min, 1 µM (in vitro; [11]) of the same molecule?
Its remaining at 20 min, 1 µM is 0.7%.

And the remaining at 20 min, 1 µM (in vitro; [12])?
Its remaining at 20 min, 1 µM is 0.7%.

What about the remaining at 0.5 h, 1 µM (in vitro; [11]) of the same molecule?
Its remaining at 0.5 h, 1 µM is 0.554%.

And the remaining at 0.5 h, 1 µM (in vitro; [12])?
Its remaining at 0.5 h, 1 µM is 0.554%.

What about the remaining at 1 h, 1 µM (in vitro; [11]) of the same molecule?
The remaining at 1 h, 1 µM was 0.158%.

What about the remaining at 1 h, 1 µM (in vitro; [12]) of the same molecule?
Its remaining at 1 h, 1 µM is 0.16%.
